# Reference: patent publication US20220274983A1, “JAK KINASE INHIBITOR AND USE THEREOF” (JIANGSU CAREPHAR PHARMACEUTICAL CO., LTD., priority 2019, published 2022)
# Read-outs that look alike come from different tables or passages of the source.
# Legend:
# JAK1 = JAK1 (Homo sapiens, UniProt P23458); assay: JAK kinase inhibitory activity, HTRF biochemical assay
# Procedure: (§1) The compounds of the above embodiments were applied to the detection and screening of JAK kinase inhibitory activity.
# (§2) A corresponding volume of DMSO was added to each well of a first 96-well plate. 20-30 μL of 100-200 μM stock solution of different test compounds were added to each well. The mixture was shaken and mixed for 3 min. All of the compounds were subjected to 3× serial dilution. 60-80 μL Kinase buffer was added to each well of a second 96-well plate, and 1-2 μL of the solution taken from each well of the first 96-well plate was added to the corresponding well of the second 96-well plate. The mixture was shaken and mixed for 3 min. 5 μL of compound dilution taken from each well of the second compound dilution plate was transferred to the corresponding well of a 384-well test plate. 1-2 μL TK Substrate-biotin was added to each well of the test plate. 1-2 μL of enzyme mixture was added to each well. At the same time, a blank well without enzyme was set. 1-2 μL of ATP solution was added to each well, the plate was sealed and reacted at room temperature. The reaction time was as follows: JAK1: 2 h, JAK2: 30 min, JAK3: 30 min, and TYK2: 50 min. 3-5 μL of Streptavidin-XL665 and 3-5 μL of TK Antibody-cryptate were added to each well, the plate was sealed and allowed to stand at room temperature for 30 min to complete the reaction.
# (§3) The percentage of inhibition was calculated based on the following formula:
# (§4) Inhibition %=[(Ratiomax−Ratiocompound)/(Ratiomax−Ratiomin)]×100%
# (§5) Ratiocompound is the HTRF ratio at a given compound concentration, Ratiomin is the HTRF ratio added to the blank well, and Ratiomax is the HTRF ratio without adding the compound. GraphPad Prism 5.0 software was used to plot a sigmoid dose-inhibition rate curve with a non-linear regression model and calculate the IC50 value.
# JAK2 = JAK2 (Homo sapiens, UniProt O60674); assay: as above
# JAK2, sequence (O60674 whole entry, species assumed): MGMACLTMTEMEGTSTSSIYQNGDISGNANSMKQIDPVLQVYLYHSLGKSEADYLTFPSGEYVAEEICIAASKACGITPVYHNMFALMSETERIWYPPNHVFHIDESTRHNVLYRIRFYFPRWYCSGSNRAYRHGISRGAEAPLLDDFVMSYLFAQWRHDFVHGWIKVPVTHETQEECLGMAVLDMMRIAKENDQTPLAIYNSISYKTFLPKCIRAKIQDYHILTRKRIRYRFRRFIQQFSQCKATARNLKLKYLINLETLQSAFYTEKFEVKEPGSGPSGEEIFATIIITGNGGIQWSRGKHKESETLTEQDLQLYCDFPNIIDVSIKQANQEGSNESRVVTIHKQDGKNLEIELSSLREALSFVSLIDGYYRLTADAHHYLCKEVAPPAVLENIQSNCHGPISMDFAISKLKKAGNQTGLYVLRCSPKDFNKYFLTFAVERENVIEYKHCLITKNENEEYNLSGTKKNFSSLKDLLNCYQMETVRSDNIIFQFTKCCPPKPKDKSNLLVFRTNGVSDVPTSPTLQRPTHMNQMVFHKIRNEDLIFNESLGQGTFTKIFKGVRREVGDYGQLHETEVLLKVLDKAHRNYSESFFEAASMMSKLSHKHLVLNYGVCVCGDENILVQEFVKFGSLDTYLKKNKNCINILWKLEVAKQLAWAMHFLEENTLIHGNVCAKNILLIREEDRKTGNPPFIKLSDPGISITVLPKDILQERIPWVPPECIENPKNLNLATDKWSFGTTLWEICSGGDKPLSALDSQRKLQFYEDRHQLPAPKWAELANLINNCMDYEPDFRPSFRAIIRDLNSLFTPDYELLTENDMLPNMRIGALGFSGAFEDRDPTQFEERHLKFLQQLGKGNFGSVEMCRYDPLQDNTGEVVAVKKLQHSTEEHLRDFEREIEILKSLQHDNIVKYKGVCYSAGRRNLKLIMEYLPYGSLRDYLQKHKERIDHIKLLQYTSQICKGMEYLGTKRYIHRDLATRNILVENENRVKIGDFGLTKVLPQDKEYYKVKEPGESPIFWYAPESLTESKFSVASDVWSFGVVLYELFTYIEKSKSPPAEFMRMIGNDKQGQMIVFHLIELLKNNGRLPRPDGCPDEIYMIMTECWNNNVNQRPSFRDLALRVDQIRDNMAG
# Procedure: as §1, §2, §3, §4, §5
# Hela cells = assay: Proliferation inhibition based on Hela cells (OSM stimulation, CTG); format: cell-based; settings: Homo sapiens, read-out: IC50 (uM), proliferation inhibitory activity on Hela cells
# Procedure: (§6) 1. Cell plating: cultured cells were collected and counted for viable cells with Vi-Cell XR cell counter. The cell suspension was adjusted to an appropriate concentration with the medium and then added to a 96-well cell culture plate. 50 μL-100 μL of the cell suspension was added to each well of the 96-well cell culture plate. The cell plating density depended on the growth rate of the cells. The cells were cultured in corresponding incubators.
# 2. Drug Treatment and OSM Stimulation
# Firstly, a series of test compound concentration (work solution-1) was prepared using DMSO with 3× gradient dilution, and then it was subjected to fold dilution with RPMI1640+10% FBS to obtain a work solution-2; Cisplatin's work solution-2 was prepared with RPMI1640+10% FBS, and then 1-10 μL solution taken from the work solution-2 was added to the prepared cell wells containing medium. After incubation, 1-10 μL of OSM medium was added to each well and continued to culture. An appropriate CTG solution was added to each well. The mixture was shaken and mixed for 1-5 min and then a luminescence signal was determined with an Envision2104 plate reader.
# (§7) Cell Survival Rate Calculation
# (§8) T is the luminescence reading of a drug treatment group, and C is the average luminescence reading of a solvent control group.
# BaF3 cells = assay: Proliferation inhibition based on BaF3 cells (IL-3 medium, CTG); format: cell-based; settings: Mus musculus, medium containing IL-3, read-out: IC50 (uM), proliferation inhibitory activity on BaF3 cells
# Procedure: 1. Cell plating: cultured cells were collected with RPMI1640+10% FBS (containing IL-3) medium and counted for viable cells with Vi-Cell XR cell counter. The cell suspension was adjusted to an appropriate concentration with RPMI1640+10% FBS (containing IL-3) medium and then added to a 96-well cell culture plate. A certain amount of cell suspension was added to each well of the 96-well cell culture plate. The cells were cultured in corresponding incubators.
# (§9) 2. Drug treatment: a series of test compound concentration (work solution-1) was prepared using DMSO with 3× gradient dilution, and then it was subjected to fold dilution with RPMI1640+10% FBS (containing IL-3) to obtain a work solution-2; Cisplatin's work solution-2 was prepared with RPMI1640+10% FBS (containing IL-3), and then 1-10 μL solution taken from the work solution-2 was added to the prepared cell wells containing medium. The cells were cultured in the corresponding incubators. An appropriate CTG solution was added to each well.
# as §7, §8
# THP1 cells = assay: Proliferation inhibition based on THP1 cells (IL-4 stimulation, CTG); format: cell-based; settings: Homo sapiens, THP-1, read-out: IC50 (uM), proliferation inhibitory activity on THP1 cells
# Procedure: as §6, with “80” for “50 μL-100”
# as §9, with “treatment and IL-4 stimulation: firstly,” for “treatment:”, “FBS” for “FBS (containing IL-3)”, “FBS,” for “FBS (containing IL-3),”, “incubators. After incubation, 1-10 μL of IL-4 medium was added to each well and continued to culture.” for “incubators.”
# Cell Survial Rate Calculation
# as §8
# JAK3 = target: T1, JAK3 (Homo sapiens, UniProt P52333); assay: JAK kinase inhibitory activity, HTRF biochemical assay
# T1 sequence (P52333 1-1124): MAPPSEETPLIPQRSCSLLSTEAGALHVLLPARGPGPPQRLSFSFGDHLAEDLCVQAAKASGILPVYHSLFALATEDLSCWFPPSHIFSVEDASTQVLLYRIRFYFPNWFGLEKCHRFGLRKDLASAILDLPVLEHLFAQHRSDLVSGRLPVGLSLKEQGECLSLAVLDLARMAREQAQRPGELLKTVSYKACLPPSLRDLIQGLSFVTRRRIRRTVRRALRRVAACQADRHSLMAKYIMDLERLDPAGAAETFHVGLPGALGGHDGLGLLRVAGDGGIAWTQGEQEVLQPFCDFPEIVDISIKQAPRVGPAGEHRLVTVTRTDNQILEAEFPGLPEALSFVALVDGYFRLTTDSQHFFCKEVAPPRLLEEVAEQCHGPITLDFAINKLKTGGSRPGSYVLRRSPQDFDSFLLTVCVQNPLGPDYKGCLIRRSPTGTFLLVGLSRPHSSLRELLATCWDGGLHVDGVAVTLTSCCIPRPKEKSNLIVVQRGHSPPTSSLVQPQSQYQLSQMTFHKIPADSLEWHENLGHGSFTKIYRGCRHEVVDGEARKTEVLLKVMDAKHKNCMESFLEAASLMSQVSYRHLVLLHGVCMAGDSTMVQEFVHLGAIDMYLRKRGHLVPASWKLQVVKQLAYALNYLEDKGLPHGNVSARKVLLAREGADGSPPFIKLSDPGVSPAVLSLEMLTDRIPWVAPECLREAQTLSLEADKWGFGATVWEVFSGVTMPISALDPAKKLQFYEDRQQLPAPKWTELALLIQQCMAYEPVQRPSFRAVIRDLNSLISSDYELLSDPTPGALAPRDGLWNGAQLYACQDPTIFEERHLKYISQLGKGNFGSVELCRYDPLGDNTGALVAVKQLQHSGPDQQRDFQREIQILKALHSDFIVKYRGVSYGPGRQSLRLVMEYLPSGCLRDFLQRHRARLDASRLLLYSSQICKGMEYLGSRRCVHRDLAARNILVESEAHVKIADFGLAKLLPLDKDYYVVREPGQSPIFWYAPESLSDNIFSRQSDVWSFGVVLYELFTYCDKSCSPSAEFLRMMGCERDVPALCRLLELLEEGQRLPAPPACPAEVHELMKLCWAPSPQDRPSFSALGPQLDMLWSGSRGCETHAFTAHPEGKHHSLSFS
# Procedure: as §1, §2, §3, §4, §5
# TYK2 = TYK2 (Homo sapiens, UniProt P29597); assay: as above
# TYK2, sequence (P29597 whole entry, species assumed): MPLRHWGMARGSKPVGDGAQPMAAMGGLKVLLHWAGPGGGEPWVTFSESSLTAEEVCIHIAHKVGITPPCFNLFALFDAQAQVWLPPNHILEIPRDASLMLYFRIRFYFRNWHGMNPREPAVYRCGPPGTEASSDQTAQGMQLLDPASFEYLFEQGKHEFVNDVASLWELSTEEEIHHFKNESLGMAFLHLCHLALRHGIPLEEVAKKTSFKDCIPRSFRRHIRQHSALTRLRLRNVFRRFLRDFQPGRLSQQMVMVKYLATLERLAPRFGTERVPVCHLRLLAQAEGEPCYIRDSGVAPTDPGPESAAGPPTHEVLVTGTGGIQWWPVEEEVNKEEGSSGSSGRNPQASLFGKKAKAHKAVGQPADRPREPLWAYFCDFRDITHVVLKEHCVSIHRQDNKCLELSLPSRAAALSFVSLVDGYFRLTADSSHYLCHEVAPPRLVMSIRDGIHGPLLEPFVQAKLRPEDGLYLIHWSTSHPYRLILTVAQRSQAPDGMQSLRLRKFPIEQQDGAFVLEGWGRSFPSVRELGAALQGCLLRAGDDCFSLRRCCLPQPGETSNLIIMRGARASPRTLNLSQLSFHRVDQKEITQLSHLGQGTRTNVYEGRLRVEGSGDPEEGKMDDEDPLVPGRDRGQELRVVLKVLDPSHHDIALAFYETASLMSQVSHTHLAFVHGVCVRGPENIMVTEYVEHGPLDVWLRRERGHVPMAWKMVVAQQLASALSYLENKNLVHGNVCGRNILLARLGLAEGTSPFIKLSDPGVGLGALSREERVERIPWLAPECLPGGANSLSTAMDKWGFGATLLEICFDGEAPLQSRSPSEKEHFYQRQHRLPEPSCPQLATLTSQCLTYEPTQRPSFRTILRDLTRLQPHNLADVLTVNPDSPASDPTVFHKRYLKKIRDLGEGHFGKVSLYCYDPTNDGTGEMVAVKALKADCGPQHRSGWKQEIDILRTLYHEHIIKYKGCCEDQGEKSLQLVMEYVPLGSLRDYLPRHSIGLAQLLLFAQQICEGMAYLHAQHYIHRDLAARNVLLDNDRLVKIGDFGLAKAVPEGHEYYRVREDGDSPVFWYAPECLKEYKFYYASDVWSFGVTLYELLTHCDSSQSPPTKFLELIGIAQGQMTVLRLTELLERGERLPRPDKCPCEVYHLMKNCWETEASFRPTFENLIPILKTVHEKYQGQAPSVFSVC
# Procedure: as §1, §2, §3, §4, §5
# Pharmacokinetic study = format: in vivo; settings: rat, plasma; rats, oral, 1-10 mg/kg
# Procedure: For the intravenous route and the oral route, the compound was formulated in an aqueous solution containing 5% DMSO+95% hydroxypropyl-β-cyclodextrin. Test animals were administered orally at 1-10 mg/kg and intravenously at 1-5 mg/kg. Each group included 3 rats. About 0.2 mL of blood was collected by jugular vein puncture with heparin sodium anticoagulant at the following time points: 0.083 h, 0.25 h, 0.5 h, 1 h, 2 h, 4 h, 6 h, 8 h, 10 h and 24 h. Plasma was separated by centrifugation at 5000-13000 rpm for 10 min within 1 hour after collecting the blood sample, and the plasma sample was analyzed on LC-MS/MS.
# The pharmacokinetic parameters were calculated using Phoenix WinNonlin 7.0 based on blood drug concentration data at different time points to provide parameters such as AUC0-t, AUC0-∞, MRT0-∞, Cmax, Tmax, and T1/2.
# rat CIA model = assay: Hindfoot foot volume in rat CIA model; format: in vivo, Lewis rats; settings: CIA rats, hindfoot, 10 mg/kg oral gavage once daily for 2 w
# Procedure: Lewis rats (female, 10-12 weeks old) were obtained from Beijing Vital River Laboratory Animal Technology Co., Ltd. The rats were on a light and dark alternation for 12 h, and the environment was kept at a temperature of 23±2° C. and a humidity of 40-70%.
# Type II collagen solution (2 mg/mL) was prepared with 0.05 M acetic acid solution to allow to be fully dissolved, and placed overnight in the dark at 4° C. During the test, 2 mg/mL type II collagen (C II) solution and 4 mg/mL complete Freund's adjuvant (CFA) solution were mixed in equal volumes under ice bath conditions to fully emulsify. On day 0, an emulsion prepared by mixing equal volumes of C II (2 mg/mL) and CFA (4 mg/mL) was injected intracutaneously into the base of the tail of experimental rats for primary immunization, and on day 7, secondary booster immunization was performed.
# The therapeutic effect of the test compound was tested in a rat CIA model. The rats were randomly divided into groups with 8 animals in each group. All animals were immunized on day 0 and boosted on day 7.
# Therefore, the differences in body weight and foot volume after the onset of arthritis compared with the negative group, respectively, can be used to evaluate the therapeutic effect in the rat model. The experimental data were expressed as Mean±SEM; the data between the two groups was tested by unpaired t-test and p<0.05 was considered as a significant difference.
# JAK1, sequence (P23458 whole entry, species assumed): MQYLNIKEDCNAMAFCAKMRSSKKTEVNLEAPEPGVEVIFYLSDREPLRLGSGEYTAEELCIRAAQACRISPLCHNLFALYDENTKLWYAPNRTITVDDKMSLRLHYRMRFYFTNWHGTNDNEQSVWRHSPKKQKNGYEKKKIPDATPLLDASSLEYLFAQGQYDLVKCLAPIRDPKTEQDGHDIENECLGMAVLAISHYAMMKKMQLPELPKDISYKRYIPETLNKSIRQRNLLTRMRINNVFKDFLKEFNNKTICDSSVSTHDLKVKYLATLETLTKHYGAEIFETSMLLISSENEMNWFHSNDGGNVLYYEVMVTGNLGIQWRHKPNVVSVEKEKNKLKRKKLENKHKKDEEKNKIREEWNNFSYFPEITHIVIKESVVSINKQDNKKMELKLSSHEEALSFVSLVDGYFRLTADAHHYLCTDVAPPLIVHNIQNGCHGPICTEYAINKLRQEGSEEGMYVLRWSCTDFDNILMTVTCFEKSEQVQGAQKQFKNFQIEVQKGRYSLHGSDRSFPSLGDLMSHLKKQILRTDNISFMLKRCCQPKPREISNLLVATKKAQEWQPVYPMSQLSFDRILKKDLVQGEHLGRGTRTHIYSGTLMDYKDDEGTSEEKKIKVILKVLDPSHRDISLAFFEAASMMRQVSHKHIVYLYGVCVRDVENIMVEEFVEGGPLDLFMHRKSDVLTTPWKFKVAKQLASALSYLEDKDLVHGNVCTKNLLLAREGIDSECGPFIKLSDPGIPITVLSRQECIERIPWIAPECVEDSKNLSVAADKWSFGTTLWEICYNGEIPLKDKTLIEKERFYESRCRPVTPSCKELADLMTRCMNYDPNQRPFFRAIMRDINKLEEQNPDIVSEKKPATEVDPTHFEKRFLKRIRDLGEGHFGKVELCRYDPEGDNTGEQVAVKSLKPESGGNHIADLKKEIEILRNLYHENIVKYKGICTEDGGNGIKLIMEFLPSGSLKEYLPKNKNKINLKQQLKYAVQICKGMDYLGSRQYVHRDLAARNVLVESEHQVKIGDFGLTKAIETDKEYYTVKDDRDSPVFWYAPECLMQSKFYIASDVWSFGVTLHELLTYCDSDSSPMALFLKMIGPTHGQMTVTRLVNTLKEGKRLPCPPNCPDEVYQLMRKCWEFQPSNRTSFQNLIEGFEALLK
IC50 (JAK1),IC50 (JAK2),IC50 (Hela cells; OSM stimulation),IC50 (BaF3 cells),IC50 (THP1 cells),Structure (SMILES),other results
50 to 500 nM,50 to 500 nM,5 to 30 µM,< 5 µM,< 5 µM,"O=C(Nc1nc2cccc(-c3ccc(CN4CCS(=O)(=O)CC4)s3)n2n1)[C@H]1C[C@H]1F (relative stereo) [EXP-5, N-[5-[4-[(1,1-dioxothiomorpholine)methyl]thienyl]-[1,2,4]triazolo[1,5-a]pyridin-2-yl]-cis-2-fluoro-cyclopropanecarboxamide]",–
50 to 500 nM,50 to 500 nM,< 5 µM,< 5 µM,< 5 µM,Cc1cc(-c2cccc3nc(NC(=O)C4CC4)nn23)sc1CN1CCS(=O)(=O)CC1 [EXP-2],–
> 500 nM,–,5 to 30 µM,5 to 30 µM,5 to 30 µM,"O=C(Nc1nc2cccc(-c3cnc(CN4CCS(=O)(=O)CC4)s3)n2n1)C1CC1 [EXP-4, N-[5-[2-[(1,1-dioxo-1,4-thiazine-4-)methyl]thiazol-5-]-[1,2,4]triazolo[1,5-a]pyridine-2-]cyclopropylcarboxamide]",–
50 to 500 nM,50 to 500 nM,–,–,–,O=C(Nc1nc2cccc(-c3ccc(CN4CCS(=O)(=O)CC4)s3)n2n1)[C@H]1C[C@@H]1F [EXP-6],IC50 (JAK3): > 500 nM; IC50 (TYK2): > 500 nM
–,–,–,5 to 30 µM,5 to 30 µM,"O=C(Nc1nc2cccc(-c3ccc(CN4CCS(=O)(=O)CC4)cc3)n2n1)C1CC1 [Filgotinib, reference compound]",IC50 (Hela cells): 5 to 30 µM; AUC (Pharmacokinetic study): 2850 ng·h/mL; Cmax (Pharmacokinetic study): 426 ng/mL; half-life (Pharmacokinetic study): 3.9 h; Foot volume (ml)/Day (rat CIA model; day 0): 2.597 ± 0.014 mL; Foot volume (ml)/Day (rat CIA model; day 8): 2.589 ± 0.020 mL; Foot volume (ml)/Day (rat CIA model; day 11): 2.700 ± 0.090 mL; Foot volume (ml)/Day (rat CIA model; day 14): 3.644 ± 0.330 mL; Foot volume (ml)/Day (rat CIA model; day 17): 4.702 ± 0.255 mL; Foot volume (ml)/Day (rat CIA model; day 21): 4.829 mL; Foot volume (ml)/Day (rat CIA model; day 24): 4.769 mL; Foot volume (ml)/Day (rat CIA model; day 28): 4.363 mL
